In US10252997B2, “Monocyclic compound” (Takeda Pharmaceutical Company Limited, priority 2015, dated 2019):

Columns and labels:
[1] = molecular target: T1, Human ACC1 (Homo sapiens, UniProt Q13085); test: Measurement of ACC1 inhibitory activity (Malonyl-CoA produced, RapidFire-mass spectrometry); type: biochemical; settings: 10 μM of the test compound; read-out: ACC1 inhibitory rate (%) at 10 μM
T1 construct: His6 (from vector pFAST-BacHTc; purified on Ni-NTA) (N); made in house; host or cells: SF-9 insect cells, recombinant baculovirus BAC-ACC1
Procedure: (1) Cloning of Human ACC1 Gene and Preparation of Recombinant Baculovirus
Human ACC1 gene was cloned by PCR using a human liver cDNA library (Clontech) as a template and Primer 1 and Primer 2 shown below. Primer 1 and Primer 2 were prepared by adding SalI, NotI restriction enzyme recognition sequences based on the information of the base sequence of human ACC1 gene (Genbank Accession U19822).
PCR was performed using Pyrobest DNA polymerase (TAKARA BIO INC.). The obtained PCR product was cloned to pT7 Blue vector (Novagen) and after confirmation of the base sequence, digested with restriction enzymes SalI and […]. The obtained DNA fragment was inserted into pFAST-BacHTc (Invitrogen) digested with restriction enzymes SalI and […] to give expression plasmid ACC1/pFAST-BacHTc.
Using the expression plasmid ACC1/pFAST-BacHTc and BAC-TO-BAC Baculovirus Expression System (Invitrogen), virus stock BAC-ACC1 of recombinant Baculovirus was prepared.
(2) Preparation of ACC1 Protein
SF-9 cells (Invitrogen) were inoculated to a medium (10 L) for insect cells (Sf-900IISFM medium (Invitrogen) containing 5% fetal bovine serum (Trace), 50 mg/L Gentamicin (Wako Pure Chemical Industries, Ltd.) and 0.1% Pluronic F-68 (Invitrogen)) at 1.0×10^6 cells/mL, and cultured with shaking in Wave Bioreactor (GE Healthcare) at 27° C., 20 rpm, rocking angle 100, oxygen concentration 30%.
On day 2 of the culture, recombinant Baculovirus BAC-ACC1 was added, and the cells were cultured for 3 days. The culture medium was centrifuged at 4000×g for 10 min to give virus-infected cells. The cells were washed with phosphate buffered saline (Invitrogen) and centrifuged under the same conditions. The obtained cells were cryopreserved at −80° C.
The cryopreserved cells were thawed in ice, and suspended in 800 mL of 25 mM HEPES buffer (pH 7.5) containing 10% Glycerol, 0.3 M NaCl, 1 mM EDTA, 25 mM Sodium β-Glycerophosphate and 1 mM Sodium Orthovanadate, and supplemented with Complete Protease Inhibitor (Roche). The obtained suspension was homogenized two times in a polytron homogenizer (Kinematica) at 20,000 rpm for 20 sec. The obtained cell disruption solution was clarified by centrifugation at 186,000×g for 60 min, and the supernatant was passed through Ni-NTA Superflow Cartridges (5 mL) (QUIAGEN). Furthermore, it was washed with 25 mM HEPES buffer (pH 7.5) containing 20 mM Imidazole and 0.3 M NaCl, and eluted with 25 mM HEPES buffer (pH 7.5) containing 250 mM Imidazol and 0.3 M NaCl. The eluate was concentrated by Amicon Ultra-15 (Nihon Millipore K.K.) having a fraction molecular weight of 50K. The obtained concentrate was subjected to gel filtration with 50 mM HEPES buffer (pH 7.5) containing 10 mM MgCl2, 2 mM dithiothreitol, 10 mM tripotassium citrate and 0.3 M NaCl by using HiLoad 26/60 Superdex200 prep grade gel filtration column (GE Healthcare) to give ACC1. The obtained ACC1 was cryopreserved at −80° C.
(3) Measurement of ACC1 Inhibitory Activity
ACC1 obtained in the above-mentioned (2) was diluted with an enzyme reaction buffer (50 mM HEPES (pH 7.5), 10 mM MgCl2, 10 mM Tripottasium Citrate, 2 mM Dithiothreitol, 0.001% Fatty acid free BSA) to a concentration of 0.2 μg/ml, and the mixture was added to each well of a 384 well assay plate by 10 μl. A test compound dissolved in dimethyl sulfoxide (DMSO) was diluted with an enzyme reaction buffer, and the resulting solution (5 μl) was added to each well. The mixture was incubated at room temperature for 60 min. Then, a substrate solution (50 mM KHCO3, 200 μM ATP, 200 μM Acetyl-CoA, 5 μl) was added to each well, and the mixture was reacted at room temperature for 30 min. The reaction was quenched by adding a reaction quenching liquid (1.3% formic acid, 0.2 μM Malonyl-^13C3-CoA) by 60 μL each to the obtained reaction mixtures (test compound addition group).
In addition, a reaction was performed in the same manner as above and without adding the test compound (test compound non-addition group). […]

[2] = system: HCT116 cells; test: Growth inhibitory activity on HCT116 cell (CellTiter-Glo); type: cell-based; settings: Homo sapiens, HCT-116, 72 h; test compound 1 μM, 3 days; read-out: HCT116 cell proliferation inhibitory rate (%) at 1 μM
Procedure: The growth inhibitory activity of the compound on HCT116 cell was evaluated by the following method.
HCT116 cells were seeded in a 384 well blackplate at 900 cells/[…]/well, and maintained in an assay medium (RPMI medium (Wako) containing 2% fetal bovine serum, 50 Unit/mL penicillin and […] streptomycin (Invitrogen)). The next day, a test compound dissolved in dimethyl sulfoxide (DMSO) was diluted with the assay medium, and the obtained compound solution was added by […] to each well of a plate containing HCT116 cells, and incubated at 37° C., 5% CO2 (test compound addition group).
A similar reaction was performed without adding a test compound (test compound non-addition group).
Furthermore, a similar reaction was performed under the conditions without adding HCT116 cell and a test compound (control group).
After 3 days, […] of a CellTiter-Glo reagent (Promega KK) was added to the well, and the mixture was stirred for 10 min. Thereafter, the luminescence value of each well was measured by the EnVision™ multilabel counter (Perkin Elmer Inc.).
The HCT116 cell proliferation inhibitory rate (%) of the test compound was determined by the following calculation formula. (1−(luminescence of test compound addition group−luminescence of control group)÷(luminescence of test compound non-addition group−luminescence of control group))×100
The HCT116 cell proliferation inhibitory rates (%) of the test compound (1 μM) are shown below.

Compound	inhibition at 10 µM [1] [%]	inhibition at 1 µM [2] [%]
CC(=O)NC(C)CCc1cc(-c2ccc(Oc3cccc(OCC4CC4)c3)cc2)no1 (stereo not drawn) [Example 46, N-(4-(3-(4-(3-(cyclopropylmethoxy)phenoxy)phenyl)-1,2-oxazol-5-yl)butan-2-yl)acetamide]	95	20
CC(=O)NC(C)CCc1ccn(-c2ccc(Oc3cccc(OCC4CC4)c3)cc2)n1 (stereo not drawn) [Example 48, N-(4-(1-(4-(3-(cyclopropylmethoxy)phenoxy)phenyl)-1H-pyrazol-3-yl)butan-2-yl)acetamide]	96	14
CC(=O)NC(C)CC(=O)c1cnc(-c2ccc(Oc3cccc(OCC4CC4)c3)cc2)o1 (stereo not drawn) [Example 64, N-(4-(2-(4-(3-(cyclopropylmethoxy)phenoxy)phenyl)-1,3-oxazol-5-yl)-4-oxobutan-2-yl)acetamide]	99	35
CC(=O)N[C@@H](C)COc1cc(-c2ccc(Oc3cccc(OCC4CC4)c3)cc2)no1 [Example 67, N-((2S)-1-((3-(4-(3-(cyclopropylmethoxy)phenoxy)phenyl)-1,2-oxazol-5-yl)oxy)propan-2-yl)acetamide]	92	29
CC(=O)NC(C)c1ccc(OCc2c(F)cc(Oc3cccc(OCC4CC4)c3)cc2F)nc1 (stereo not drawn) [Example 68, N-(1-(6-((4-(3-(cyclopropylmethoxy)phenoxy)-2,6-difluorobenzyl)oxy)pyridin-3-yl)ethyl)acetamide]	96	25
CC(=O)NC(C)c1ccc(OCc2c(F)cc(Oc3cccc(OCC4CC4)c3)cc2F)cn1 (stereo not drawn) [Example 69, N-(1-(5-((4-(3-(cyclopropylmethoxy)phenoxy)-2,6-difluorobenzyl)oxy)pyridin-2-yl)ethyl)acetamide]	96	28
CC(=O)NC(C)c1cnc(OCc2c(F)cc(Oc3cccc(OCC4CC4)c3)cc2F)c(F)c1 (stereo not drawn) [Example 73, N-(1-(6-((4-(3-(cyclopropylmethoxy)phenoxy)-2,6-difluorobenzyl)oxy)-5-fluoropyridin-3-yl)ethyl)acetamide]	98	31
CC(=O)NC(C)c1ccc(OCc2c(F)cc(Oc3cccc(OCC4CC4)c3)cc2F)nn1 (stereo not drawn) [Example 78, N-(1-(6-((4-(3-(cyclopropylmethoxy)phenoxy)-2,6-difluorobenzyl)oxy)pyridazin-3-yl)ethyl)acetamide]	97	12
CC(=O)NC(C)CCc1coc(-c2ccc(Oc3cccc(OCC4CC4)c3)cc2)n1 (stereo not drawn) [Example 83, N-(4-(2-(4-(3-(cyclopropylmethoxy)phenoxy)phenyl)-1,3-oxazol-4-yl)butan-2-yl)acetamide]	97	28
